{"source": "paper PMC8543028", "about": "(Infection and Drug Resistance, 2021)", "key": {"[1]": {"test_system": "M. tuberculosis H37Rv ATCC 27294 reference strain", "assay_type": "cell-based, Mycobacterium tuberculosis"}, "[2]": {"test_system": "M. tuberculosis H37Ra", "assay_type": "cell-based, Mycobacterium tuberculosis"}}, "data": [{"molecule": "O=[N+]([O-])c1ccc(/C(O)=C/C(=S)S)cc1", "note": "[Compound 11e, (Z)-3-hydroxy-3-(4-nitrophenyl)-prop-2-enedithioic acid]", "values": [{"measurement": "inhibitory activity compared with 11a", "setting": "[1]", "value": "eight times that of 11a"}, {"measurement": "MIC100 in H37Ra", "setting": "[2]", "value": "active"}]}]}
